Experiment [1] relates to HIV1 IIIb. Briefly: microbe, parasite or virus in culture. It counts as cell-based. The settings on record: Human immunodeficiency virus 1, IIIB; for viability at 0.1 µg/mL: 0.1 ug/ml; for viability at 1 µg/mL: 1 ug/ml; for viability at 10 µg/mL: 10 ug/ml; for viability at 56.7 µg/mL: 56.7 ug/ml; for viability at 48.4 µg/mL: 48.4 ug/ml; for viability at 2.4 µg/mL: 2.4 ug/ml. The source says: In-vitro Screening Anti--HIV XTT Assay
This assay, which is available to the public by the National Cancer Institute, utilizes colorimetry based on the production of a colored formazin from a tetrazolium salt by viable cells, to develop a safe, rapid and quantitative measure of HIV cytopathology. The assay is a modification of the previously described screening method for the detection of anti-tumor drug cytotoxicity (D. A. Scudiero, et al, Cancer Res, 48, 4827-4833 (1988)). It involves the plating of susceptible human "host" cells with and without virus in microculture plates, adding various concentrations of the respective test compounds, incubating the plates for seven days, during which time infected, non-drug treated control cells are largely or totally destroyed by the virus. The number of remaining viable cells are determined utilizing a calorimetric endpoint. A beneficial antiviral effect is indicated by a response % grater than the virus kill %, with 100% being optimal.
Anti-viral effect: Response (Viable Cells, determined by colorometric
absorbance of formazan dye produced) as % of uninfected controls
Virus Source: HIV1 IIIb; C, Virus producing H9 cells; V, cell free virus
Virus Kill: Infected untreated cells as % of uninfected cell controls
*: Culture redosed with compound after 3 days

The subject of experiment [2] is HIV-2 protease. The experiment in a line: HIV protease cleavage of nonapeptide (HPLC). The settings on record: 0.5 μl of 10 μg/μl inhibitor in DMSO per 10 μl reaction; pH 6.5, room temperature; pentapeptide product relative to DMSO control; sampled at ca. 16 and 40 hr (time not given). It counts as biochemical. How it is done:
Activity Against HIV Protease
The assay for proteolyic activity is a modified version of that previously described by Copeland et al., Gene Anal. Tech., 5:109-115 (1988). For each assay to be performed 2 microliters of protease solution (ca. 100 ng) is added to 3 μg of nonapeptide (Val-Ser-Gln-Asn-Tyr-Pro-Ile-Val-Gln-NH2) in 8 μl of 200 mM sodium phosphate, 1 M NaCl, 5% glycerol, 0.25% Nonidet-40, at pH 6.5. This affords a stock solution containing 10 μl per number of reactions. This stock is aliquoted out in 10 μl portions to which 0.5 μl of DMSO (a control is run with each set of assays to compensate for minor experimental variations) or a DMSO solution containing 10 μg/μl of an inhibitor, i.e., any one of the compounds of the present invention, is added. The reactions were incubated at room temperature and 4 μl portions were removed at ca. 16 and 40 hr. intervals. HPLC analysis was performed on a 4.6×250 mm Lichrosorb RP-18 column eluted with a gradient of 0-40% acetonitrile in water (containing 0.05% TFA) over 30 min monitoring absorbance at 206 nm. Progress of the enzymatic cleavage was followed by monitoring the appearance of the pentapeptide (Val-Ser-Gln-Asn-Tyr-OH) cleavage product. The activity is expressed as the amount of the pentapeptide (Val-Ser-Gln-Asn-Tyr-OH) observed relative to the control reaction for that set of assays.
Inhibition of HIV-2 protease

Where [3] appears, read: 168 h, read-out: Antiviral Effect (viable cells as % of uninfected controls), run 6, source V (cell free virus), virus kill 26.0%.

Read-outs that look alike come from different tables or passages of the source.

In the case of `OC[C@@H]1O[C@@H]1COCc1ccccc1` [Example 13, (2S-cis)-3-(Benzyloxymethyl)oxirane Methanol], the viability at 0.1 µg/mL in experiment [1] (168 h, read-out: Antiviral Effect (viable cells as % of uninfected controls), run 4, source V (cell free virus), virus kill 55.0%) was 50%; in experiment [1] (168 h, read-out: Antiviral Effect (viable cells as % of uninfected controls), run 5, source V (cell free virus), virus kill 27.0%) it was 52.5%; in experiment [1] (H9, 168 h, read-out: Antiviral Effect (viable cells as % of uninfected controls), run 1, source C (virus producing H9 cells), virus kill 21.0%), 22.1%. In experiment [1] (168 h, read-out: Antiviral Effect (viable cells as % of uninfected controls), run 6, 4.4 ug/ml, source V (cell free virus), virus kill 24.0%), the viability at 4.4 µg/mL stood at 28.4%. Besides, in experiment [1] (168 h, read-out: Antiviral Effect (viable cells as % of uninfected controls), run 7*, 0.44 ug/ml, source V (cell free virus), virus kill 27.0%, culture redosed with compound after 3 days), the viability at 0.44 µg/mL is 30.1%. The viability at 1 µg/mL in experiment [1] (H9, 168 h, read-out: Antiviral Effect (viable cells as % of uninfected controls), run 2, source C (virus producing H9 cells), virus kill 13.0%) came to 15.7%; in experiment [1] (H9, 168 h, read-out: Antiviral Effect (viable cells as % of uninfected controls), run 3, source C (virus producing H9 cells), virus kill 11.0%), 10.2%. In addition, the “Percent Control Cleavage of Nonapeptide HIV-1 Cleavage Site Fragment” value (shortened to “Percent Control Cleavage”) in experiment [2] is 81%.
As for `OC[C@H]1O[C@H]1COCc1ccccc1` [Example 14, (2R-cis)-3-(Benzyloxymethyl)oxirane Methanol], the viability at 1 µg/mL in experiment [1] (168 h, read-out: Antiviral Effect (viable cells as % of uninfected controls), run 6, source V (cell free virus), virus kill 50.0%) was determined as 43.5%. Also, the viability at 10 µg/mL in experiment [1] (168 h, read-out: Antiviral Effect (viable cells as % of uninfected controls), run 7, source V (cell free virus), virus kill 50.0%) amounted to 49.5%; in experiment [1] (H9, 168 h, read-out: Antiviral Effect (viable cells as % of uninfected controls), run 2, source C (virus producing H9 cells), virus kill 17.0%), 53.5%; in experiment [1] (H9, 168 h, read-out: Antiviral Effect (viable cells as % of uninfected controls), run 3, source C (virus producing H9 cells), virus kill 17.0%), 61%; in experiment [1] (H9, 168 h, read-out: Antiviral Effect (viable cells as % of uninfected controls), run 5, source C (virus producing H9 cells), virus kill 10.0%), 10.5%. For the same molecule, the viability at 0.1 µg/mL in experiment [1] (168 h, read-out: Antiviral Effect (viable cells as % of uninfected controls), run 8, source V (cell free virus), virus kill 16.0%) is 17.7%; in experiment [1] (168 h, read-out: Antiviral Effect (viable cells as % of uninfected controls), run 9, source V (cell free virus), virus kill 16.0%), 20.6%; in experiment [1] (H9, 168 h, read-out: Antiviral Effect (viable cells as % of uninfected controls), run 1, source C (virus producing H9 cells), virus kill 18.0%), 21.9%; in experiment [1] (H9, 168 h, read-out: Antiviral Effect (viable cells as % of uninfected controls), run 4, source C (virus producing H9 cells), virus kill 10.0%) it was 12.1%. For the same molecule, in experiment [1] (168 h, read-out: Antiviral Effect (viable cells as % of uninfected controls), run 10, 4.1 ug/ml, source V (cell free virus), virus kill 29.0%), the viability at 4.1 µg/mL worked out at 28.8%. In experiment [1] (168 h, read-out: Antiviral Effect (viable cells as % of uninfected controls), run 11*, 0.004 ug/ml, source V (cell free virus), virus kill 25.0%, culture redosed with compound after 3 days), the viability at 0.004 µg/mL was found to be 30%. In addition, in experiment [2], the “Percent Control Cleavage” value is recorded as 78%.
`CCCCCCCOC[C@H]1O[C@H]1CO` [Example 17]: in experiment [1] (168 h, read-out: Antiviral Effect (viable cells as % of uninfected controls), run 4, 11.3 ug/ml, source V (cell free virus), virus kill 40.0%), the viability at 11.3 µg/mL came to 57.6%. Besides, the viability at 56.7 µg/mL in experiment [1] (168 h, read-out: Antiviral Effect (viable cells as % of uninfected controls), run 5, source V (cell free virus), virus kill 57.0%) was 102%; in experiment [1] (setting [3]), 69.2%; in experiment [1] (H9, 168 h, read-out: Antiviral Effect (viable cells as % of uninfected controls), run 2, source C (virus producing H9 cells), virus kill 15.0%), 53.7%; in experiment [1] (H9, 168 h, read-out: Antiviral Effect (viable cells as % of uninfected controls), run 3, source C (virus producing H9 cells), virus kill 15.0%), 83.1%. Moreover, the viability at 1.97 µg/mL in experiment [1] (168 h, read-out: Antiviral Effect (viable cells as % of uninfected controls), run 7*, 1.97 ug/ml, source V (cell free virus), virus kill 28.0%, culture redosed with compound after 3 days) amounted to 15.8%. The viability at 113 µg/mL in experiment [1] (H9, 168 h, read-out: Antiviral Effect (viable cells as % of uninfected controls), run 1, 113 ug/ml, source C (virus producing H9 cells), virus kill 10.0%) was 31.1%. Also, in experiment [2], the “Percent Control Cleavage” value is given as 66%.
Regarding `CCCCCCCOC[C@@H]1O[C@@H]1CO` [Example 18, (2R-cis)-3-(Heptyloxymethyl)oxirane Methanol], the viability at 9.65 µg/mL in experiment [1] (168 h, read-out: Antiviral Effect (viable cells as % of uninfected controls), run 4, 9.65 ug/ml, source V (cell free virus), virus kill 40.0%) came out at 58.8%. For the same molecule, the viability at 48.4 µg/mL in experiment [1] (168 h, read-out: Antiviral Effect (viable cells as % of uninfected controls), run 5, source V (cell free virus), virus kill 63.0%) was 89.8%; in experiment [1] (setting [3]), 49%; in experiment [1] (H9, 168 h, read-out: Antiviral Effect (viable cells as % of uninfected controls), run 2, source C (virus producing H9 cells), virus kill 16.0%), 30.7%. In addition, the viability at 2.4 µg/mL was 29.4% in experiment [1] (168 h, read-out: Antiviral Effect (viable cells as % of uninfected controls), run 7, source V (cell free virus), virus kill 20.0%) and 40.2% in experiment [1] (168 h, read-out: Antiviral Effect (viable cells as % of uninfected controls), run 8*, source V (cell free virus), virus kill 25.0%, culture redosed with compound after 3 days). For the same molecule, in experiment [1] (H9, 168 h, read-out: Antiviral Effect (viable cells as % of uninfected controls), run 1, 96.5 ug/ml, source C (virus producing H9 cells), virus kill 11.0%), the viability at 96.5 µg/mL was found to be 38.6%. Besides, the viability at 4.84 µg/mL in experiment [1] (H9, 168 h, read-out: Antiviral Effect (viable cells as % of uninfected controls), run 3, 4.84 ug/ml, source C (virus producing H9 cells), virus kill 10.0%) is 17%. Also, the “Percent Control Cleavage” value in experiment [2] is given as 71%.
